Source: US20240180998A1, “MULTILAYERED PATCH” (KØBENHAVNS UNIVERSITET, priority 2021, published 2024)
≈ marks a conversion by molar mass, not a printed value.

What was measured:
C. albicans = details: Huang et al., 2020; cited from earlier work
[1] = Huang et al., 2020, cited from earlier work
[2] = Drug loading of freeze-dried foam (disintegration of foam discs and quantification); format: physicochemical; details: for Loading efficiency (%): mean ± standard deviation
Procedure: The samples were incubated for 3 h at 37° C. and aliquots of 100 μL were withdrawn from each of the diffusion cells at specific time points and replenished with 100 μL warm (37° C.) hHBSS. The exact peptide dose was determined by disintegrating a 10 mm foam disc of known weight in 1 mL water for at least 1 h at RT. All samples were centrifuged (10,000 rpm/9279×g, 10 min, 4° C.) and the concentration of desmopressin in the supernatant was determined by reversed phase high performance liquid chromatography with UV detection (RP-HPLC-UV). Discs (10 mm in diameter) of NFF multilayered DDS were fixed in Ussing chamber […] […] 2 mL warm (37° C.) hHBSS without BSA pH 6.8 was added to each side of the sample. The samples were incubated for 3 h at 37° C. and aliquots of 100 μL were withdrawn from each of the diffusion cells at specific time points and replenished with 100 μl warm (37° C.) hHBSS without BSA pH 6.8.

[3] = drug loaded in foam, desmopressin at theoretical loading 29.13 μg/mg

Loading efficiency (%) [2, 3] [%] | Loading efficiency (%) ([2]; desmopressin at theoretical loading 107.17 μg/mg) | specific loading of desmopressin ([2]; foam of NFF, discs of 10 mm) | SMILES | minimal fungicidal concentration (MFC) (C. albicans) [mg/L] | minimal inhibitory concentration (MIC) (C. albicans) [mg/L] | Log P [1] | aqueous solubility ([1]; in water) [µg/mL]
110 ± 2 | – | – | Clc1ccccc1C(c1ccccc1)(c1ccccc1)n1ccnc1 [Clotrimazole] | 4 (≈ 11.6 µM) | 1 (≈ 2.9 µM) | 6.3 | 0.49 (≈ 1.42 µM)
97 ± 1 | 117 ± 1 | 28.2±0.2 μg per mg of foam | NC(=O)CC[C@@H]1NC(=O)[C@H](Cc2ccccc2)NC(=O)[C@H](Cc2ccc(O)cc2)NC(=O)CCSSC[C@@H](C(=O)N2CCC[C@H]2C(=O)N[C@H](CCCN=C(N)N)C(=O)NCC(N)=O)NC(=O)[C@H](CC(N)=O)NC1=O [Desmopressin] | – | – | – | –
